Active and inactive are the calls of the source. The rule behind the calls is not given here.
Experiments:
SF-268 = assay: Growth inhibition of human SF268 cells after 48 hrs by sulforhodamine B assay; type: functional; conditions: SF-268, 48 h
NCI-H460 = assay: Growth inhibition of human NCI-H460 cells after 48 hrs by sulforhodamine B assay; type: functional; conditions: NCI-H460, 48 h
MCF7 = assay: Growth inhibition of human MCF7 cells after 48 hrs by sulforhodamine B assay; type: functional; conditions: MCF7, 48 h
WI-38 VA13 = assay: Growth inhibition of human VA13 cells after 48 hrs by sulforhodamine B assay; type: functional, cell-based
UACC-62 = assay: Growth inhibition of human UACC62 cells after 48 hrs by sulforhodamine B assay; type: functional; conditions: UACC-62, 48 h
HepG2 = assay: Growth inhibition of human HepG2 cells after 48 hrs by sulforhodamine B assay; type: functional, cell-based

SMILES	GI50 (NCI-H460) [µM]	GI50 (MCF7) [µM]	GI50 (SF-268) [µM]	growth inhibition (GI) (WI-38 VA13)	GI50 (UACC-62) [µM]	growth inhibition (GI) (HepG2)
CCOC(=O)C1CCC(c2ccc(N)cc2)c2ccccc21 (racemic)	142	117	116	inactive		
COc1cc(C2c3c(cc4c(c3OC)OCO4)CC(COC(C)=O)C2COC(C)=O)cc(OC)c1O (centres undefined)						inactive
COC(=O)/C=C/c1cccc([N+](=O)[O-])c1	175	74.1	180			
CCOC(=O)C(CCc1cccc([N+](=O)[O-])c1)c1ccccc1 (centres undefined)	149	92.7	> 150			
CCOC(=O)C(CCCc1ccc([N+](=O)[O-])cc1)c1ccccc1 (centres undefined)	19.4	16.4	23.2			
O=[N+]([O-])c1cccc(CCCO)c1	> 250	> 250	> 250		> 250	
O=[N+]([O-])c1ccc(CCI)cc1	112	55.8	95.7			
CCOC(=O)C(CCCc1cccc([N+](=O)[O-])c1)c1ccccc1 (centres undefined)	> 150	149	> 150			
CCOC(=O)C(CCCc1cccc(N)c1)c1ccccc1 (centres undefined)	154	109	> 160		125	
COC(=O)/C=C/c1ccc([N+](=O)[O-])cc1	> 240	214	> 240			
COc1cccc2c1C(=O)c1c(O)c3c(c(O)c1C2=O)C[C@@](O)(C(=O)CO)C[C@@H]3O[C@H]1C[C@H](N)[C@H](O)[C@H](C)O1 [DOXORUBICIN]	0.094	42.8	0.094			
CCOC(=O)C1CCC2(C=CC(=O)C=C2)c2ccccc21 (centres undefined)	19.2	16.4	21.9			

Continued, in another order:

GI50 (NCI-H460) [µM]	GI50 (MCF7) [µM]	SMILES	GI50 (SF-268) [µM]	growth inhibition (GI) (WI-38 VA13)	GI50 (UACC-62) [µM]	growth inhibition (GI) (HepG2)
> 150	134	CCOC(=O)C(CCc1ccc([N+](=O)[O-])cc1)c1ccccc1 (centres undefined)	> 150			
132	104	CCOC(=O)C(CCc1cccc(N)c1)c1ccccc1 (centres undefined)	159		102	
> 160	120	CCOC(=O)C(CCc1cccc(N=[N+]=[N-])c1)c1ccccc1 (centres undefined)	> 160			
> 160	125	CCOC(=O)C(CCc1ccc(N=[N+]=[N-])cc1)c1ccccc1 (centres undefined)	> 160			
> 150	119	CCOC(=O)C(CCCc1cccc(N=[N+]=[N-])c1)c1ccccc1 (centres undefined)	> 150			
> 150	> 150	CCOC(=O)C(CCCc1ccc(N=[N+]=[N-])cc1)c1ccccc1 (centres undefined)	> 150			
> 160	155	CCOC(=O)C(CCCc1ccc(N)cc1)c1ccccc1 (centres undefined)	> 160		> 100	
40.8	36.3	CCOC(=O)C(CCc1ccc(N)cc1)c1ccccc1 (centres undefined)	51.8		23.3	
